{
  "source": "paper PMC5218480",
  "about": "(PLoS ONE, 2017)",
  "system": "MV-4-11 cells",
  "assay": "Gene expression microarray analysis (Affymetrix PrimeView) and GSEA",
  "assay_type": "cell-based, human",
  "parameters": "RFU PODN (11730768_x_at) / Fold change /veh PODN (11730768_x_at) / RFU LINC00158 (11744669_a_at) / Fold change /veh LINC00158 (11744669_a_at) / RFU DUSP10 (11751237_a_at) / Fold change /veh DUSP10 (11751237_a_at) / RFU ID3 (11757404_x_at) / Fold change /veh ID3 (11757404_x_at) / RFU PLEKHG5 (11737974_s_at) / Fold change /veh PLEKHG5 (11737974_s_at) / RFU LRRC4B (11730491_at) / Fold change /veh LRRC4B (11730491_at) / RFU GIMAP4 (11747438_a_at) / Fold change /veh GIMAP4 (11747438_a_at) / RFU KRT8 (11758183_x_at) / Fold change /veh KRT8 (11758183_x_at) / RFU CNN1 (11734310_a_at) / Fold change /veh CNN1 (11734310_a_at) / RFU VPS37D (11726825_at) / Fold change /veh VPS37D (11726825_at) / RFU C10orf10 (11716522_x_at) / Fold change /veh C10orf10 (11716522_x_at) / RFU KIR2DL2 /// KIR2DL4 /// KIR2DL5A /// KIR2DL5B /// KIR2DS1 /// KIR2DS2 /// KIR2DS3 /// KIR2DS4 /// KIR3DL3 /// KIR3DL3 /// KIR3DS1 (11738374_at) / Fold change /veh KIR2DL2 /// KIR2DL4 /// KIR2DL5A /// KIR2DL5B /// KIR2DS1 /// KIR2DS2 /// KIR2DS3 /// KIR2DS4 /// KIR3DL3 /// KIR3DL3 /// KIR3DS1 (11738374_at) / RFU C1QL1 (11718748_at) / Fold change /veh C1QL1 (11718748_at) / RFU TMPRSS4 (11747572_a_at) / Fold change /veh TMPRSS4 (11747572_a_at) / RFU HAMP (11756126_x_at) / Fold change /veh HAMP (11756126_x_at) / RFU RNFT2 (11725882_a_at) / Fold change /veh RNFT2 (11725882_a_at) / RFU NR4A2 (11747474_a_at) / Fold change /veh NR4A2 (11747474_a_at) / RFU ABCC12 (11746883_a_at) / Fold change /veh ABCC12 (11746883_a_at) / RFU TMEM136 (11760407_x_at) / Fold change /veh TMEM136 (11760407_x_at) / RFU CLDN22 /// WWC2 (11732394_at) / Fold change /veh CLDN22 /// WWC2 (11732394_at) / RFU HLA-DPB1 (11760878_x_at) / Fold change /veh HLA-DPB1 (11760878_x_at) / RFU SPINT1 (11716480_a_at) / Fold change /veh SPINT1 (11716480_a_at) / RFU GAP43 (11754022_s_at) / Fold change /veh GAP43 (11754022_s_at) / RFU A4GNT (11735810_at) / Fold change /veh A4GNT (11735810_at) / RFU PRB3 (11715151_x_at) / Fold change /veh PRB3 (11715151_x_at) / RFU TUBB4B (11761932_at) / Fold change /veh TUBB4B (11761932_at) / RFU CAPN14 (11732068_a_at) / Fold change /veh CAPN14 (11732068_a_at) / RFU TMCC2 (11721928_a_at) / Fold change /veh TMCC2 (11721928_a_at) / RFU IRGQ (11745062_a_at) / Fold change /veh IRGQ (11745062_a_at) / RFU FAM174B (11720279_a_at) / Fold change /veh FAM174B (11720279_a_at) / RFU TMPRSS4 (11748680_a_at) / Fold change /veh TMPRSS4 (11748680_a_at) / RFU FAM212B (11763350_a_at) / Fold change /veh FAM212B (11763350_a_at) / RFU PLEKHG5 (11743358_a_at) / Fold change /veh PLEKHG5 (11743358_a_at) / RFU ZSCAN30 (11745921_a_at) / Fold change /veh ZSCAN30 (11745921_a_at) / RFU CMKLR1 (11741424_a_at) / Fold change /veh CMKLR1 (11741424_a_at) / RFU LOC101060620 /// MAPK8IP1 (11723275_at) / Fold change /veh LOC101060620 /// MAPK8IP1 (11723275_at) / RFU SPTSSB (11747773_x_at) / Fold change /veh SPTSSB (11747773_x_at) / RFU PRSS12 (11739890_at) / Fold change /veh PRSS12 (11739890_at) / RFU BIN1 (11741810_x_at) / Fold change /veh BIN1 (11741810_x_at) / RFU WNT11 (11732464_a_at) / Fold change /veh WNT11 (11732464_a_at) / RFU C10orf10 (11716521_a_at) / Fold change /veh C10orf10 (11716521_a_at) / RFU C5orf56 (11738089_at) / Fold change /veh C5orf56 (11738089_at) / RFU CYB561 (11721691_x_at) / Fold change /veh CYB561 (11721691_x_at) / RFU ANKRD19P (11752326_a_at) / Fold change /veh ANKRD19P (11752326_a_at) / RFU OR2T12 /// OR2T33 /// OR2T8 (11738714_s_at) / Fold change /veh OR2T12 /// OR2T33 /// OR2T8 (11738714_s_at) / RFU VCAN (11748164_a_at) / Fold change /veh VCAN (11748164_a_at) / RFU JSRP1 (11732532_at) / Fold change /veh JSRP1 (11732532_at) / RFU KRTAP10-11 (11738290_x_at) / Fold change /veh KRTAP10-11 (11738290_x_at) / RFU MYO3A (11730013_a_at) / Fold change /veh MYO3A (11730013_a_at) / RFU EBF3 (11725865_a_at) / Fold change /veh EBF3 (11725865_a_at) / RFU CAMK2N1 (11719241_x_at) / Fold change /veh CAMK2N1 (11719241_x_at) / RFU C5orf56 (11738088_a_at) / Fold change /veh C5orf56 (11738088_a_at) / RFU OLFML3 (11715873_a_at) / Fold change /veh OLFML3 (11715873_a_at) / RFU LOC100653217 /// NTM (11731650_a_at) / Fold change /veh LOC100653217 /// NTM (11731650_a_at) / RFU MAPK11 (11762145_a_at) / Fold change /veh MAPK11 (11762145_a_at) / RFU FIZ1 (11724087_x_at) / Fold change /veh FIZ1 (11724087_x_at) / RFU OASL (11726364_x_at) / Fold change /veh OASL (11726364_x_at) / RFU SOX15 (11748057_x_at) / Fold change /veh SOX15 (11748057_x_at) / RFU CD79A (11719716_a_at) / Fold change /veh CD79A (11719716_a_at) / RFU HIST1H1D (11736915_at) / Fold change /veh HIST1H1D (11736915_at) / RFU CASKIN2 (11723855_a_at) / Fold change /veh CASKIN2 (11723855_a_at) / RFU LOC730098 (11760151_x_at) / Fold change /veh LOC730098 (11760151_x_at) / RFU OR4N2 (11742367_at) / Fold change /veh OR4N2 (11742367_at) / RFU PRRT2 (11749266_a_at) / Fold change /veh PRRT2 (11749266_a_at) / RFU SNX32 (11753110_a_at) / Fold change /veh SNX32 (11753110_a_at) / RFU CDHR5 (11726645_a_at) / Fold change /veh CDHR5 (11726645_a_at) / RFU RCAN1 (11760418_a_at) / Fold change /veh RCAN1 (11760418_a_at) / RFU FAM167A (11723789_a_at) / Fold change /veh FAM167A (11723789_a_at) / RFU FAM26E (11764081_at) / Fold change /veh FAM26E (11764081_at) / RFU ISYNA1 (11749810_s_at) / Fold change /veh ISYNA1 (11749810_s_at) / RFU ACY1 (11761880_at) / Fold change /veh ACY1 (11761880_at) / RFU 11764098_at / Fold change /veh 11764098_at / RFU SAMD14 (11745864_x_at) / Fold change /veh SAMD14 (11745864_x_at) / RFU NPB (11741838_a_at) / Fold change /veh NPB (11741838_a_at) / RFU TMPRSS6 (11731388_a_at) / Fold change /veh TMPRSS6 (11731388_a_at) / RFU KRTAP10-2 (11738614_at) / Fold change /veh KRTAP10-2 (11738614_at) / RFU ARHGAP8 /// PRR5-ARHGAP8 (11727945_x_at) / Fold change /veh ARHGAP8 /// PRR5-ARHGAP8 (11727945_x_at) / RFU KRTAP5-7 /// NADSYN1 (11734609_at) / Fold change /veh KRTAP5-7 /// NADSYN1 (11734609_at) / RFU RASL12 (11751679_a_at) / Fold change /veh RASL12 (11751679_a_at) / RFU CDKN2B (11736163_a_at) / Fold change /veh CDKN2B (11736163_a_at) / RFU PRF1 (11729649_at) / Fold change /veh PRF1 (11729649_at) / RFU, ZNF638 /// ZNF638-IT1 / Fold change vs veh, ZNF638 /// ZNF638-IT1 / RFU, PANK3 / Fold change vs veh, PANK3 / RFU, SH3YL1 / Fold change vs veh, SH3YL1 / RFU, ZEB2 / Fold change vs veh, ZEB2 / RFU, NRIP1 / Fold change vs veh, NRIP1 / RFU, PTTG1IP / Fold change vs veh, PTTG1IP / RFU, CAPN2 / Fold change vs veh, CAPN2 / RFU, MED14 / Fold change vs veh, MED14 / RFU, SNORA58 / Fold change vs veh, SNORA58 / RFU, C1orf63 / Fold change vs veh, C1orf63 / RFU, LRRFIP1 / Fold change vs veh, LRRFIP1 / RFU, NDUFAF7 / Fold change vs veh, NDUFAF7 / RFU, SLC12A2 / Fold change vs veh, SLC12A2 / RFU, IBTK / Fold change vs veh, IBTK / RFU, ESF1 / Fold change vs veh, ESF1 / Fold change vs veh, TMEM50B / RFU, TAOK1 / Fold change vs veh, TAOK1 / RFU, ACBD3 / Fold change vs veh, ACBD3 / RFU, TMA16 / Fold change vs veh, TMA16 / RFU, RWDD3 / Fold change vs veh, RWDD3 / RFU, BCAT1 / Fold change vs veh, BCAT1 / RFU, EDEM3 / Fold change vs veh, EDEM3 / RFU, TMEM33 / Fold change vs veh, TMEM33 / RFU, WDR75 / Fold change vs veh, WDR75 / RFU, AHCTF1 / Fold change vs veh, AHCTF1 / RFU, TFRC / Fold change vs veh, TFRC / RFU, ZDHHC17 / Fold change vs veh, ZDHHC17 / RFU, NOM1 / Fold change vs veh, NOM1 / RFU, ARL8B / Fold change vs veh, ARL8B / RFU, ZBTB11 / Fold change vs veh, ZBTB11 / RFU, TAMM41 / Fold change vs veh, TAMM41 / RFU, KIAA1704 /// LOC100996395 / Fold change vs veh, KIAA1704 /// LOC100996395 / RFU, ING1 / Fold change vs veh, ING1 / RFU, TRMT61B / Fold change vs veh, TRMT61B / RFU, FUBP3 / Fold change vs veh, FUBP3 / RFU, TP53 / Fold change vs veh, TP53 / RFU, TNKS2 / Fold change vs veh, TNKS2 / RFU, ZFP14 / Fold change vs veh, ZFP14 / RFU, ACTR2 / Fold change vs veh, ACTR2 / RFU, PPP3R1 / Fold change vs veh, PPP3R1 / RFU, PIK3R1 / Fold change vs veh, PIK3R1 / RFU, HNRNPA1 / Fold change vs veh, HNRNPA1 / RFU, RNF170 / Fold change vs veh, RNF170 / RFU, ZNF28 / Fold change vs veh, ZNF28 / RFU, RNGTT / Fold change vs veh, RNGTT / RFU, OGT / Fold change vs veh, OGT / RFU, BRD1 / Fold change vs veh, BRD1 / RFU, MARS / Fold change vs veh, MARS / RFU, ZNF655 / Fold change vs veh, ZNF655 / RFU, FAHD1 / Fold change vs veh, FAHD1 / RFU, BDP1 / Fold change vs veh, BDP1 / RFU, LRRCC1 / Fold change vs veh, LRRCC1 / RFU, ARID1A / Fold change vs veh, ARID1A / RFU, ZNF146 / Fold change vs veh, ZNF146 / RFU, ZNF330 / Fold change vs veh, ZNF330 / RFU, GPN3 / Fold change vs veh, GPN3 / RFU, C9orf123 / Fold change vs veh, C9orf123 / RFU, N4BP2L2 / Fold change vs veh, N4BP2L2 / RFU, ARFIP1 / Fold change vs veh, ARFIP1 / RFU, FAM179B / Fold change vs veh, FAM179B / RFU, BCL10 / Fold change vs veh, BCL10 / RFU, UHRF1BP1L / Fold change vs veh, UHRF1BP1L / RFU, BET1 / Fold change vs veh, BET1 / RFU, CNOT2 / Fold change vs veh, CNOT2 / RFU, ZNF268 / Fold change vs veh, ZNF268 / Fold change vs veh, ZNF507 / RFU, DGCR2 / Fold change vs veh, DGCR2 / RFU, WDSUB1 / Fold change vs veh, WDSUB1 / Fold change vs veh, HSP90B1 /// MIR3652 / RFU, ADSS / Fold change vs veh, ADSS / RFU, GK / Fold change vs veh, GK / RFU, ZNF148 / Fold change vs veh, ZNF148 / RFU, TAF9 / Fold change vs veh, TAF9 / RFU, SLC1A5 / Fold change vs veh, SLC1A5 / RFU, SLMO2 / Fold change vs veh, SLMO2 / RFU, ABCC4 / Fold change vs veh, ABCC4 / RFU, LOC101060439 /// RAP1B / Fold change vs veh, LOC101060439 /// RAP1B / RFU, RFX7 / Fold change vs veh, RFX7 / RFU, GTPBP10 / Fold change vs veh, GTPBP10 / RFU, CNEP1R1 / Fold change vs veh, CNEP1R1 / RFU, BIVM-ERCC5 /// ERCC5 / Fold change vs veh, BIVM-ERCC5 /// ERCC5 / RFU, ILF3 / Fold change vs veh, ILF3 / RFU 11762660_at / Fold change /veh 11762660_at / RFU VCAN (11757783_s_at) / Fold change /veh VCAN (11757783_s_at) / RFU DDX43 (11728927_at) / Fold change /veh DDX43 (11728927_at) / RFU KRT8 (11758188_x_at) / Fold change /veh KRT8 (11758188_x_at) / RFU NKD1 (11759106_at) / Fold change /veh NKD1 (11759106_at) / RFU SRD5A1 (11742802_a_at) / Fold change /veh SRD5A1 (11742802_a_at) / RFU TPSAB1 /// TPSB2 (11721975_s_at) / Fold change /veh TPSAB1 /// TPSB2 (11721975_s_at) / RFU GSTM3 (11746129_a_at) / Fold change /veh GSTM3 (11746129_a_at) / RFU IL23R (11737362_x_at) / Fold change /veh IL23R (11737362_x_at) / RFU TMEM51 (11727254_a_at) / Fold change /veh TMEM51 (11727254_a_at) / RFU PIWIL2 (11732686_x_at) / Fold change /veh PIWIL2 (11732686_x_at) / RFU ORM1 (11744905_x_at) / Fold change /veh ORM1 (11744905_x_at) / RFU CCDC152 (11743942_at) / Fold change /veh CCDC152 (11743942_at) / RFU ECM1 (11717891_a_at) / Fold change /veh ECM1 (11717891_a_at) / RFU IL23R (11748794_a_at) / Fold change /veh IL23R (11748794_a_at) / RFU TNFAIP8L3 (11732012_x_at) / Fold change /veh TNFAIP8L3 (11732012_x_at) / RFU MBOAT4 (11741988_at) / Fold change /veh MBOAT4 (11741988_at) / RFU 11764193_at / Fold change /veh 11764193_at / RFU TMEM53 (11763286_at) / Fold change /veh TMEM53 (11763286_at) / RFU MAGEB2 (11727129_at) / Fold change /veh MAGEB2 (11727129_at) / RFU TMEM200A (11744735_a_at) / Fold change /veh TMEM200A (11744735_a_at) / RFU CCDC152 (11751479_a_at) / Fold change /veh CCDC152 (11751479_a_at) / RFU FAM211A (11726209_a_at) / Fold change /veh FAM211A (11726209_a_at) / RFU RGS16 (11746705_a_at) / Fold change /veh RGS16 (11746705_a_at) / RFU VCAN (11755009_s_at) / Fold change /veh VCAN (11755009_s_at) / RFU RHOB (11743442_s_at) / Fold change /veh RHOB (11743442_s_at) / RFU RGS16 (11720943_a_at) / Fold change /veh RGS16 (11720943_a_at) / RFU RGS16 (11720944_at) / Fold change /veh RGS16 (11720944_at) / RFU, VPS4B / Fold change vs veh, VPS4B / RFU, CREB1 / Fold change vs veh, CREB1 / RFU, DNAJC13 / Fold change vs veh, DNAJC13 / RFU, GNAQ / Fold change vs veh, GNAQ / RFU, CDK5R1 / Fold change vs veh, CDK5R1 / RFU, ZRANB3 / Fold change vs veh, ZRANB3 / RFU, CUL4A / Fold change vs veh, CUL4A / RFU, CCNY / Fold change vs veh, CCNY / RFU, UFL1 / Fold change vs veh, UFL1 / RFU, COG3 / Fold change vs veh, COG3 / RFU, DIAPH2 / Fold change vs veh, DIAPH2 / RFU, SKA2 / Fold change vs veh, SKA2 / RFU, AFF3 / Fold change vs veh, AFF3 / RFU, LMF1 / Fold change vs veh, LMF1 / RFU, IPO11 / Fold change vs veh, IPO11 / RFU, DFFB / Fold change vs veh, DFFB / RFU, FOXP1 / Fold change vs veh, FOXP1 / RFU, CARD8 / Fold change vs veh, CARD8 / RFU, STRN3 / Fold change vs veh, STRN3 / RFU, ADK / Fold change vs veh, ADK / RFU, RASSF2 / Fold change vs veh, RASSF2 / RFU, WIPF1 / Fold change vs veh, WIPF1 / RFU, LARP1B / Fold change vs veh, LARP1B / RFU, RASA1 / Fold change vs veh, RASA1 / RFU, RB1 / Fold change vs veh, RB1 / RFU, PPFIA1 / Fold change vs veh, PPFIA1 / RFU, MAT2A / Fold change vs veh, MAT2A / RFU, CCT5 / Fold change vs veh, CCT5 / RFU, WDR92 / Fold change vs veh, WDR92 / RFU, CUX1 / Fold change vs veh, CUX1 / RFU, TTC7A / Fold change vs veh, TTC7A / RFU, TMEM135 / Fold change vs veh, TMEM135 / RFU, DEPTOR / Fold change vs veh, DEPTOR / RFU, CPM / Fold change vs veh, CPM / RFU, DNAJB6 / Fold change vs veh, DNAJB6 / RFU, CACNA2D3 / Fold change vs veh, CACNA2D3 / RFU, DTX4 / Fold change vs veh, DTX4 / RFU, TFCP2 / Fold change vs veh, TFCP2 / RFU, GMCL1 /// GMCL1P1 / Fold change vs veh, GMCL1 /// GMCL1P1 / RFU, AEBP2 / Fold change vs veh, AEBP2 / RFU, SNHG1 /// SNORD22 /// SNORD25 /// SNORD26 /// SNORD27 /// SNORD28 /// SNORD29 /// SNORD31 / Fold change vs veh, SNHG1 /// SNORD22 /// SNORD25 /// SNORD26 /// SNORD27 /// SNORD28 /// SNORD29 /// SNORD31 / Fold change (Aza/veh), C12orf56 (ProbeSet 11735607_a_at) / Fold change (ACY-1035/veh), C12orf56 (ProbeSet 11735607_a_at) / Fold change (Aza/veh), FGFR1OP (ProbeSet 11751329_s_at) / Fold change (ACY-1035/veh), FGFR1OP (ProbeSet 11751329_s_at) / Fold change (Aza/veh), VPS36 (ProbeSet 11739960_a_at) / Fold change (ACY-1035/veh), VPS36 (ProbeSet 11739960_a_at) / RFU SYPL1 (11715823_x_at) / Fold change /veh SYPL1 (11715823_x_at) / RFU IGFBP7 (11715501_s_at) / Fold change /veh IGFBP7 (11715501_s_at) / RFU REEP3 (11722064_at) / Fold change /veh REEP3 (11722064_at) / RFU IGLL1 (11728026_x_at) / Fold change /veh IGLL1 (11728026_x_at): dose or concentration left out as unconfirmed",
  "details": "MV-4-11 cells, 48 hours",
  "data": [
    {"smiles": "Nc1ncn([C@@H]2O[C@H](CO)[C@@H](O)[C@H]2O)c(=O)n1", "note": "[azacitidine]", "values": [
      {"measurement": "Fold change /veh ZSCAN30 (11745921_a_at)", "value": 1.18}
    ]}
  ]
}
